Data reported in patent US8491897B2, “Treatment of neuropathic pain using anti-thrombospondin antibodies” (The Board of Trustees of the Leland Stanford Junior …, priority 2007, dated 2013).
Entries after “also recorded” stand apart in the source; their conditions may differ.

Columns and labels:
RGCs [1] = test: RGC synapse assay: synaptogenic activity (co-localized synaptotagmin/PSD-95 puncta); type: cell-based, rat; settings: for number of co-localized synaptic puncta/cell (synapse number): purified TSPs, 8 nM each, vs RGCs alone (Control)
Protocol: (§1) RGCs were purified by sequential immunopanning to greater than 99.5% purity from P5 Sprague-Dawley rats (Simonsen Labs, Gilroy, Calif.), as previously described (Barres et. al. (1988) Neuron 9, 791). Approximately 30,000 RGCs were cultured per well in 24-well plates (Falcon) on glass (Assistant) or Aclar 22C (Allied Signal) coverslips coated with poly-D-lysine (10 μg/ml) followed by laminin (2 μg/ml). RGCs were cultured in 600 μl of serum-free medium, modified from Bottenstein and Sato (1979), containing Neurobasal (Gibco), bovine serum albumin, selenium, putrescine, triiodo-thyronine, transferrin, progesterone, pyruvate (1 mM), glutamine (2 mM), CNTF (10 ng/ml), BDNF (50 ng/ml), insulin (5 μg/ml), and forskolin (10 μM). Recombinant human BDNF and CNTF were generously provided by Regeneron Pharmaceuticals.
(§2) Purified human platelet TSP1 was from either Sigma or Haematologic Technologies with similar results. Recombinant TSP2 was purified from serum-free medium conditioned by baculovirus-infected insect cells expressing mouse TSP2. Since purified TSP1 is readily available, we used this as the source of TSP in our experiments unless otherwise stated TSPs were used at a concentration of 5 μg/ml unless otherwise specified. RCGs were cultured for 4 days to allow robust process outgrowth and then cultured with TSPs for an additional 6 days. All other reagents were obtained from Sigma.
For preparation of ACM, confluent cultures of astrocytes in 10 cm dishes were washed 3× in PBS and fed with 10 mls RGC medium (without CNTF, BDNF or forskolin). ACM was harvested after 4-6 days of conditioning, filtered through a 0.2 μm syringe filter and concentrated 10× through a 5 KD molecular weight cut-off centrifuge concentrator (Millipore), unless otherwise indicated. ACM was used at a final concentration of 5× unless otherwise indicated. […]
For synapse quantification, cultures were fixed for 7 min in 4% paraformaldehyde (PFA), washed 3× in phosphate buffered saline (PBS) and blocked in 100 μL of blocking buffer (50% Antibody Buffer (0.5% bovine serum albumin, 0.5% Triton X-100, 30 mM NaPO4, 750 mM NaCl, 5% normal goat serum, and 0.4% NaN3, pH 7.4), 50% goat serum (NGS), 0.1% Triton-X) for 30 min. […]
(§3) Mounted coverslips were imaged using Nikon Diaphot and Eclipse epifluorescence microscopes (Nikon). Healthy cells that were at least 2 cell diameters from their nearest neighbor were identified and selected at random by eye using DAPI fluorescence. 8-bit digital images of the fluorescence emission at both 594 nm and 488 nm were recorded for each selected cell using a cooled monochrome CCD camera and SPOT image capture software (Diagnostic Instruments, Inc). […]

naive rats = test: TSP4-induced behavioral hypersensitivity in naive rats (paw withdrawal threshold, von Frey); type: in vivo, rat
RGCs [2] = test: Inhibition of TSP-, astrocyte/ACM- or Hevin-induced synapse formation in RGC cultures; type: cell-based, rat
Protocol: as §1, §2
For preparation of ACM, confluent cultures of astrocytes in 10 cm dishes were washed 3× in PBS and fed with 10 mls RGC medium (without CNTF, BDNF or forskolin). ACM was harvested after 4-6 days of conditioning, filtered through a 0.2 μm syringe filter and concentrated 10× through a 5 KD molecular weight cut-off centrifuge concentrator (Millipore), unless otherwise indicated. ACM was used at a final concentration of 5× unless otherwise indicated. RCGs were cultured for 4 days to allow robust process outgrowth and then cultured with ACM or an astrocyte-feeding layer for an additional 6 days.
For synapse quantification, cultures were fixed for 7 min in 4% paraformaldehyde (PFA), washed 3× in phosphate buffered saline (PBS) and blocked in 100 μL of blocking buffer (50% Antibody Buffer (0.5% bovine serum albumin, 0.5% Triton X-100, 30 mM NaPO4, 750 mM NaCl, 5% normal goat serum, and 0.4% NaN3, pH 7.4), 50% goat serum (NGS), 0.1% Triton-X) for 30 min. After blocking, cover slips were washed 3× in PBS and 100 μL of primary antibody solution was added to each cover slip, consisting of rabbit anti-synaptotagmin (cytosolic domain, Synaptic Systems) and mouse anti-PSD-95 (6G6-1C9 clone, Affinity Bio Reagents) diluted 1:500 in antibody buffer. Coverslips were incubated overnight at 4° C., washed 3× in PBS, and incubated with 100 μL of secondary antibody solution containing Alexa-594 conjugated goat anti-rabbit and Alexa-488 conjugated goat anti-mouse (Molecular Probes) diluted 1:1000 in antibody buffer. Following incubation for 2 h at room temperature, coverslips were washed five times in PBS and mounted in Vectashield mounting medium with DAPI (Vector Laboratories Inc) on glass slides (VWR Scientific). For presynaptic activity assay, rabbit synaptotagmin antiserum was generated by immunization with a peptide corresponding to the N-terminal luminal portion of synaptotagmin. This serum was added at 1:500 to live cultures and incubated for 6 hours. Cells were then washed 3× in DPSB, fixed and stained as above, except for the omission of synaptotagmin antibody from the primary antibody solution.
as §3

TSP4 = target: T1, TSP4 (Rattus norvegicus, UniProt P49744); test: Reversal of established tactile allodynia in L5/6 spinal nerve ligated rats (von Frey PWT); type: in vivo; settings: 50 ug/day intrathecal for four days; for reversal of established allodynia in the injury (ipsilateral) side: 5 weeks post injury
T1 construct: elevated TSP4 protein may play a critical role in peripheral nerve injury-induced allodynia at the spinal level; from tissue; host or cells: spinal cord (L5/6) of live male Sprague Dawley rats, intrathecal injection
T1 sequence (P49744 43-980): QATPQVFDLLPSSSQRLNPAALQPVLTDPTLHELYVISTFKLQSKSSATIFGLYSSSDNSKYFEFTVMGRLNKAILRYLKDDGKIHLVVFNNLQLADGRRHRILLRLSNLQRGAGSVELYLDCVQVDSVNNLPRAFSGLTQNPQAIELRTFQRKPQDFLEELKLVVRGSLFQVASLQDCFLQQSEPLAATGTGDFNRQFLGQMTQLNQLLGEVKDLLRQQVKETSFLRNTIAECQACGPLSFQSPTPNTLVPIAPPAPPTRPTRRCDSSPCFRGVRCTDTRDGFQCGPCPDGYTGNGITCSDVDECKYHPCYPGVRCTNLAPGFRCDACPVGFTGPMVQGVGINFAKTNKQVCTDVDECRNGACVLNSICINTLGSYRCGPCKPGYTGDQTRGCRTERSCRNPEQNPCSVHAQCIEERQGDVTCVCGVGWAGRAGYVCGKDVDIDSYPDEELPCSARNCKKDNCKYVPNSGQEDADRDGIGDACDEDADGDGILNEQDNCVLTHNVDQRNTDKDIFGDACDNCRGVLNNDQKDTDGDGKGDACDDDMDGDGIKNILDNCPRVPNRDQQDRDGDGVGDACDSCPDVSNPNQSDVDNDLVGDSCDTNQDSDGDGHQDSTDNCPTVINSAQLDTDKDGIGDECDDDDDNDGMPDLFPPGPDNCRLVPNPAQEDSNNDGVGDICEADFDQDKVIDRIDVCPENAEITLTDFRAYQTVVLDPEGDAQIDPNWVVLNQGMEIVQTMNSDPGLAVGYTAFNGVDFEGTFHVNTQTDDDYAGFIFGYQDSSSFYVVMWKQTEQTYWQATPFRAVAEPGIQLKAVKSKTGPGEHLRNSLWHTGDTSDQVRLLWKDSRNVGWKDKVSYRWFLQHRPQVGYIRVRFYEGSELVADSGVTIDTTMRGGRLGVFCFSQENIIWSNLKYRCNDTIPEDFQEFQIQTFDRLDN
Protocol: To determine if TSP4 plays a role in mediating neuropathic pain processing at the spinal cord level, the effect of intrathecal TSP4 antisera in reversing established allodynia in spinal nerve ligated rats was examined. Intrathecal bolus injection of active TSP4 antibody (chicken polyclonal, from Dr. Frank Zaucke at University of Cologne, Cologne, Germany) was administered into left L5/6 spinal nerve ligated rats 2-weeks post injury, when the injured rats had fully developed allodynia. […] Neither the antisense nor mismatch oligodeoxynucleotides altered the behavioral thresholds at the non-injury side. […] Male Harlan Sprague Dawley rats (100-150 g, Harlan Industries Indianapolis, Ind.) were housed in separate cages, exposed to a 12/12 h day/night cycle and allowed free access to food and water. Peripheral nerve injury was induced in isoflurane-anesthetized animals with tight ligation of the left L5/6 spinal nerves between DRG and the beginning of the spinal nerve (Kim and Chung, Pain 50 50:355-363, 1992). To access tactile allodynia, paw withdrawal threshold (PWT) was determined using the up-down method of Dixon (Dixon, Ann. Rev. Pharma. & Toxico. 20:441-462, 1980) with von Frey filaments (Stoelting, Wood Dale, Ill., USA) as described previously (Chaplan et al., J. Neuros. Methods 53:55-63, 1994). Briefly, animals were allowed to acclimate for 30 min in a clear plastic cubicle with a wire-mesh base. A 2 g calibrated filament was first applied to the left hindpaw plantar surface with a pressure causing the filament to bend. If no paw lifting was detected after 5 s the next filament with increasing weight was used. If a paw lifting was observed, the next weaker filament was used. […] Neurosci. 21:1868-75, 2001). […] Rn014934317, Applied Biosystems), and is specific to the TSP 4 mRNA. Mismatch oligodeoxynucleotides, which contain the same number of nucleotides but in a random order (not complementary to any particular region of TSP4 mRNA), were used as controls. […] Genbank accession #: X89963) Oligodeoxynucleotides: These antisense and mismatch sequences were not complementary to any sequences of other rat genes as indicated by BLAST search results in rat genome database. It had been shown that oligodeoxynucleotides with phosphorothioate modification have increased potential for crossing lipid bilayers, and reduce nuclease cleavage (Crooke, et al., Ann. Rev. Pharmacology. & Toxicology, 1996).

## TSP4: recombinant purified pentameric thrombospondin 4
RGCs [1]
  number of co-localized synaptic puncta/cell (synapse number): significantly increased the number of co-localized synaptic puncta/cell; also recorded: increased synaptic puncta numbers to the same extent as either astrocytes or TSP1
Naive rats; intrathecal bolus
  duration of behavioral hypersensitivity: over a week
  reversal time post the peak effect time: about five days
  time of peak effect post injection: 2 to 4 days
Naive rats; intrathecal bolus injection of active protein into L5/6 spinal cord segments
  hindpaw withdrawal thresholds to von Frey filament stimulation: caused a gradual reduction in their hindpaw withdrawal thresholds; also recorded: induced behavioral hypersensitivity in a dose-dependent and reversible manner

## NCCCC(=O)O [GABA, γ-aminobutyric acid]
RGCs [2]; 1 mM (high concentrations)
  effect on SD2/TSP-induced synapse formation: blocked TSP induced synapse formation; also recorded: inhibitory
RGCs [2]; 10 and 100 μM
  effect on synapse numbers induced by SD2: did not decrease the synapse numbers

## 5′ CCATCATTGTTGCTATCTTCC 3′ (DNA, backbone and methylation of C not given here; further chemistry not fully specified) [Antisense #2]
TSP4
  duration of antisense effects after the last injection: 3 days
  onset time of antisense effects: 3 days
  time of peak antisense effect: one day after the 4-day treatment
  reversal of established allodynia in the injury (ipsilateral) side: caused a complete reversal of established allodynia
TSP4; listed as TSP4 antisense oligonucleotide #2
  reversal of established allodynia in the injury (ipsilateral) side: caused a complete reversal of established allodynia in the injury side

## TSP3: mouse TSP3 overexpressed in Cos7 cells; conditioned media used as source
RGCs [1]; culture supernatant of Cos7 cells overexpressing TSP3, vs supernatant of empty-vector Cos7 cells
  number of co-localized synaptic puncta/cell: significantly increased the number of co-localized synaptic puncta/cell; also recorded: increased the number of synaptic puncta to the same extent as astrocytes

## TSP1: purified human platelet TSP1, trimeric thrombospondin
RGCs [1]
  number of co-localized synaptic puncta/cell (synapse number): significantly increased the number of co-localized synaptic puncta/cell; also recorded: increased the number of synapses formed by RGCs significantly

## 5′ GGCGTAATCATGGTCATACG 3′ (DNA, backbone and methylation of C not given here; further chemistry not fully specified) [Antisense #1]
TSP4
  reversal of established allodynia in the injury (ipsilateral) side: had some effects in allodynia reversal

B1: Hevin: another astrocyte secreted synaptogenic protein (protein, UniProt Q14515 17-664, looked up)
SPARC-like protein 1: IPTNARLLSDHSKPTAETVAPDNTAIPSLRAEAEENEKETAVSTEDDSHHKAEKSSVLKSKEESHEQSAEQGKSSSQELGLKDQEDSDGHLSVNLEYAPTEGTLDIKEDMSEPQEKKLSENTDFLAPGVSSFTDSNQQESITKREENQEQPRNYSHHQLNRSSKHSQGLRDQGNQEQDPNISNGEEEEEKEPGEVGTHNDNQERKTELPREHANSKQEEDNTQSDDILEESDQPTQVSKMQEDEFDQGNQEQEDNSNAEMEEENASNVNKHIQETEWQSQEGKTGLEAISNHKETEEKTVSEALLMEPTDDGNTTPRNHGVDDDGDDDGDDGGTDGPRHSASDDYFIPSQAFLEAERAQSIAYHLKIEEQREKVHENENIGTTEPGEHQEAKKAENSSNEEETSSEGNMRVHAVDSCMSFQCKRGHICKADQQGKPHCVCQDPVTCPPTKPLDQVCGTDNQTYASSCHLFATKCRLEGTKKGHQLQLDYFGACKSIPTCTDFEVIQFPLRMRDWLKNILMQLYEANSEHAGYLNEKQRNKVKKIYLDEKRLLAGDHPIDLLLRDFKKNYHMYVYPVHWQFSELDQHPMDRVLTHSELAPLRASLVPMEHCITRFFEECDPNKDKHITLKEWGHCFGIKEEDIDENLLF
RGCs [1]; 3 DIV RGCs treated 9 days, TSP2 EGF-like domains 20 nM, Hevin 30 nM, vs RGCs alone
  number of synapses formed: increased the number of synapses formed significantly
